Experimental data reported in article PMC11839852, “Preclinical comparison of (radio)lanthanides using mass spectrometry and nuclear imaging techniques: biodistribution of lanthanide-based tumor-targeting agents and lanthanides in ionic form” (European Journal of Nuclear Medicine and Molecular Imaging, 2024).
Marks after values point to notes of the source that are not given here. Values belong to the molecule of their own block, whether it stands above or below them.

Legend:
[1] = tested on: AR42J tumor cells; test: In vitro cell uptake of lanthanide chloride salts; type: cell-based, rat
Method: (§1) A mixture of equal molar amounts of the lanthanide chloride salts (100 nM stock solutions of ^natLuCl3, ^natTbCl3, ^natGdCl3, and ^natEuCl3, diluted in saline with an adjusted pH value to 3.5‒4.0) was prepared to obtain a final concentration of 10 pmol/mL (2.5 pmol/mL per lanthanide salt) and tested with AR42J, PC-3 PIP and KB tumor cells according to the same protocol as described for the Ln-labeled biomolecules (Supplementary Material). Analogous in vitro cell uptake studies were also performed with lanthanide metal complexes of diethylenetriaminepentaacetic acid (DTPA, Sigma Aldrich Chemie, Steinheim, Germany) to obtain a final concentration of 10 pmol/mL (2.5 pmol/mL per lanthanide complex) (Supplementary Material).
(§2) Cell uptake studies were performed in triplicate in 3‒6 independent experiments and the results presented as the average ± standard deviation (SD). Data were normalized to the values measured for the ^175Lu-labeled tumor targeting agent or [^175Lu]LuCl3, which were set as 100% and zero was defined as 0%. Statistical significance of the normalized data was assessed for the comparison of the values obtained for terbium, gadolinium and europium analogues with those obtained for the lutetium counterparts by applying one-way ANOVA with the Dunnett’s post-test using GraphPad Prism software (version 8). A p-value of < 0.05 was considered statistically significant.
(§3) Methods: The same experimental setting as described for Ln-labeled biomolecules was applied to perform uptake and internalization studies with the lanthanide salts (LnCl3; Ln = ^natLu, ^natTb, ^natGd and ^natEu). The applied solution was a mixture of the four lanthanide salts yielding a final concentration of 0.4 µM. Of these mixtures, 25 μL were added to the corresponding well with tumor cells. The cells were incubated for 1 h and 4 h, respectively, at 37 °C and 5% CO2. After incubation, the tumor cells were treated as described for the Ln-labeled biomolecules and processed for the measurement with ICP-MS.

[2] = tested on: PC-3 PIP tumor cells; test: In vitro cell uptake of lanthanide chloride salts; type: cell-based, human
Method: as §1, §2, §3

[3] = tested on: non-tumor-bearing immunocompetent FVB mice; test: Biodistribution of lanthanide chloride salts LnCl3 (multiplexed ICP-MS); type: in vivo; conditions: for Tissue uptake: Blood / Tissue uptake: Bone / Tissue uptake: Brain / Tissue uptake: Heart / Tissue uptake: Intestines / Tissue uptake: Kidneys / Tissue uptake: Liver / Tissue uptake: Lung / Tissue uptake: Muscle / Tissue uptake: Pancreas / Tissue uptake: Salivary glands / Tissue uptake: Spleen / Tissue uptake: Stomach: non-tumor-bearing mice
[4] = tested on: KB tumor cells; test: In vitro cell uptake of lanthanide chloride salts; type: cell-based, human; conditions: 1 h incubation
Method: as §1, §2, §3

[5] = 24 h p.i., estimated ratios (organ <0.5% ID/g)
[6] = 96 h p.i., estimated ratios (organ <0.5% ID/g)

Organ ratios: Blood-to-bone ([3]; 1 h p.i.): 0.37 ± 0.01 | Organ ratios: Blood-to-liver ([3]; 1 h p.i.): 0.14 ± 0.02 | Organ ratios: Liver-to-bone ([3]; 1 h p.i.): 2.6 ± 0.4 | Tissue uptake: Blood ([3]; 1 h p.i.): 4.9 ± 0.3 % ID/g | Tissue uptake: Bone ([3]; 1 h p.i.): 13 ± 1 % ID/g | Tissue uptake: Brain ([3]; 1 h p.i.): 1.0 ± 0.6 % ID/g | Tissue uptake: Heart ([3]; 1 h p.i.): 5.0 ± 1.7 % ID/g | Tissue uptake: Intestines ([3]; 1 h p.i.): 2.5 ± 0.8 % ID/g | Tissue uptake: Kidneys ([3]; 1 h p.i.): 8.0 ± 2.0 % ID/g | Tissue uptake: Liver ([3]; 1 h p.i.): 34 ± 4 % ID/g | Tissue uptake: Lung ([3]; 1 h p.i.): 4.8 ± 0.4 % ID/g | Tissue uptake: Muscle ([3]; 1 h p.i.): 1.6 ± 0.6 % ID/g | Tissue uptake: Pancreas ([3]; 1 h p.i.): 2.2 ± 0.4 % ID/g | Tissue uptake: Salivary glands ([3]; 1 h p.i.): 2.8 ± 1.3 % ID/g | Tissue uptake: Spleen ([3]; 1 h p.i.): 6.3 ± 0.9 % ID/g | Tissue uptake: Stomach ([3]; 1 h p.i.): 6.2 ± 1.7 % ID/g | Organ ratios: Liver-to-bone ([3]; 24 h p.i.): 2.2 ± 0.5 | Organ ratios: Blood-to-bone [3, 5]: <0.03^* | Organ ratios: Blood-to-liver [3, 5]: <0.02^* | Tissue uptake: Blood ([3]; 24 h p.i.): <0.5 % ID/g | Tissue uptake: Bone ([3]; 24 h p.i.): 14 ± 2 % ID/g | Tissue uptake: Brain ([3]; 24 h p.i.): <0.5 % ID/g | Tissue uptake: Heart ([3]; 24 h p.i.): 1.2 ± 0.1 % ID/g | Tissue uptake: Intestines ([3]; 24 h p.i.): 0.71 ± 0.04 % ID/g | Tissue uptake: Kidneys ([3]; 24 h p.i.): 4.0 ± 0.9 % ID/g | Tissue uptake: Lung ([3]; 24 h p.i.): 1.3 ± 0.1 % ID/g | Tissue uptake: Muscle ([3]; 24 h p.i.): 1.1 ± 0.8 % ID/g | Tissue uptake: Pancreas ([3]; 24 h p.i.): 0.61 ± 0.11 % ID/g | Tissue uptake: Salivary glands ([3]; 24 h p.i.): 0.77 ± 0.16 % ID/g | Tissue uptake: Spleen ([3]; 24 h p.i.): 5.7 ± 1.1 % ID/g | Tissue uptake: Stomach ([3]; 24 h p.i.): 2.6 ± 0.1 % ID/g | Tissue uptake: Liver ([3]; 24 h p.i., listed as gadolinium): 31 ± 6 % ID/g | Tissue uptake: Liver ([3]; 24 h p.i., listed as natGd): ~ 31 % ID/g | Organ ratios: Liver-to-bone ([3]; 96 h p.i.): 1.1 ± 0.2 | Organ ratios: Blood-to-bone [3, 6]: <0.03^* | Organ ratios: Blood-to-liver [3, 6]: <0.03^* | Tissue uptake: Blood ([3]; 96 h p.i.): <0.5 % ID/g | Tissue uptake: Bone ([3]; 96 h p.i.): 17 ± 3 % ID/g | Tissue uptake: Brain ([3]; 96 h p.i.): <0.5 % ID/g | Tissue uptake: Heart ([3]; 96 h p.i.): 1.2 ± 0.1 % ID/g | Tissue uptake: Intestines ([3]; 96 h p.i.): 0.66 ± 0.07 % ID/g | Tissue uptake: Kidneys ([3]; 96 h p.i.): 2.0 ± 0.1 % ID/g | Tissue uptake: Liver ([3]; 96 h p.i.): 18 ± 1 % ID/g | Tissue uptake: Lung ([3]; 96 h p.i.): 1.1 ± 0.2 % ID/g | Tissue uptake: Muscle ([3]; 96 h p.i.): 0.51 ± 0.12 % ID/g | Tissue uptake: Pancreas ([3]; 96 h p.i.): 0.53 ± 0.10 % ID/g | Tissue uptake: Salivary glands ([3]; 96 h p.i.): 0.60 ± 0.08 % ID/g | Tissue uptake: Spleen ([3]; 96 h p.i.): 3.6 ± 0.3 % ID/g | Tissue uptake: Stomach ([3]; 96 h p.i.): 3.1 ± 0.8 % ID/g
Compound: [Cl][Gd]([Cl])[Cl] [[^157Gd]GdCl3]
Detected fraction after acid-wash compared with lutetium ([1]; 1 h incubation): significantly lower | Fraction retained after acid-wash compared with lutetium ([2]; both incubation times): higher

Organ ratios: Blood-to-bone ([3]; 1 h p.i.): 0.38 ± 0.08 | Organ ratios: Blood-to-liver ([3]; 1 h p.i.): 0.19 ± 0.05 | Organ ratios: Liver-to-bone ([3]; 1 h p.i.): 2.0 ± 0.3 | Tissue uptake: Blood ([3]; 1 h p.i.): 5.0 ± 0.9 % ID/g | Tissue uptake: Bone ([3]; 1 h p.i.): 13 ± 2 % ID/g | Tissue uptake: Brain ([3]; 1 h p.i.): 1.1 ± 0.8 % ID/g | Tissue uptake: Heart ([3]; 1 h p.i.): 4.8 ± 2.2 % ID/g | Tissue uptake: Intestines ([3]; 1 h p.i.): 2.6 ± 1.0 % ID/g | Tissue uptake: Kidneys ([3]; 1 h p.i.): 8.7 ± 2.5 % ID/g | Tissue uptake: Liver ([3]; 1 h p.i.): 27 ± 3 % ID/g | Tissue uptake: Lung ([3]; 1 h p.i.): 4.8 ± 1.2 % ID/g | Tissue uptake: Muscle ([3]; 1 h p.i.): 1.6 ± 0.9 % ID/g | Tissue uptake: Pancreas ([3]; 1 h p.i.): 2.2 ± 1.0 % ID/g | Tissue uptake: Salivary glands ([3]; 1 h p.i.): 2.4 ± 1.4 % ID/g | Tissue uptake: Spleen ([3]; 1 h p.i.): 6.1 ± 1.4 % ID/g | Tissue uptake: Stomach ([3]; 1 h p.i.): 6.0 ± 2.3 % ID/g | Organ ratios: Liver-to-bone ([3]; 24 h p.i.): 1.6 ± 0.5 | Organ ratios: Blood-to-bone [3, 5]: <0.04^* | Organ ratios: Blood-to-liver [3, 5]: <0.02^* | Tissue uptake: Blood ([3]; 24 h p.i.): <0.5 % ID/g | Tissue uptake: Bone ([3]; 24 h p.i.): 15 ± 2 % ID/g | Tissue uptake: Brain ([3]; 24 h p.i.): <0.5 % ID/g | Tissue uptake: Heart ([3]; 24 h p.i.): 0.76 ± 0.10 % ID/g | Tissue uptake: Intestines ([3]; 24 h p.i.): 0.54 ± 0.05 % ID/g | Tissue uptake: Kidneys ([3]; 24 h p.i.): 3.8 ± 0.8 % ID/g | Tissue uptake: Lung ([3]; 24 h p.i.): 1.0 ± 0.1 % ID/g | Tissue uptake: Muscle ([3]; 24 h p.i.): <0.5 % ID/g | Tissue uptake: Pancreas ([3]; 24 h p.i.): <0.5 % ID/g | Tissue uptake: Salivary glands ([3]; 24 h p.i.): <0.5 % ID/g | Tissue uptake: Spleen ([3]; 24 h p.i.): 5.0 ± 1.1 % ID/g | Tissue uptake: Stomach ([3]; 24 h p.i.): 1.8 ± 0.4 % ID/g | Tissue uptake: Liver ([3]; 24 h p.i., listed as natTb): ~ 22 % ID/g | Tissue uptake: Liver ([3]; 24 h p.i., listed as terbium): 22 ± 5 % ID/g | Organ ratios: Liver-to-bone ([3]; 96 h p.i.): 0.59 ± 0.18 | Organ ratios: Blood-to-bone [3, 6]: <0.03^* | Organ ratios: Blood-to-liver [3, 6]: <0.05^* | Tissue uptake: Blood ([3]; 96 h p.i.): <0.5 % ID/g | Tissue uptake: Bone ([3]; 96 h p.i.): 19 ± 4 % ID/g | Tissue uptake: Brain ([3]; 96 h p.i.): <0.5 % ID/g | Tissue uptake: Heart ([3]; 96 h p.i.): 0.73 ± 0.05 % ID/g | Tissue uptake: Intestines ([3]; 96 h p.i.): 0.52 ± 0.01 % ID/g | Tissue uptake: Kidneys ([3]; 96 h p.i.): 2.0 ± 0.1 % ID/g | Tissue uptake: Liver ([3]; 96 h p.i.): 11 ± 1 % ID/g | Tissue uptake: Lung ([3]; 96 h p.i.): 0.91 ± 0.10 % ID/g | Tissue uptake: Muscle ([3]; 96 h p.i.): <0.5 % ID/g | Tissue uptake: Pancreas ([3]; 96 h p.i.): <0.5 % ID/g | Tissue uptake: Salivary glands ([3]; 96 h p.i.): <0.5 % ID/g | Tissue uptake: Spleen ([3]; 96 h p.i.): 3.1 ± 0.2 % ID/g | Tissue uptake: Stomach ([3]; 96 h p.i.): 2.2 ± 0.4 % ID/g
Compound: [Cl][Tb]([Cl])[Cl] [[^159Tb]TbCl3]
Lanthanide uptake compared with [175Lu]LuCl3 [1]: No significant difference | Detected amount compared with lutetium [4]: significantly lower | Lanthanide uptake compared with [175Lu]LuCl3 [2]: No significant difference
